This note sets out measurements from patent publication US20240067603A1, “CUBANYL BIGUANIDE COMPOUNDS” (REGENTS OF THE UNIVERSITY OF MINNESOTA, priority 2020, published 2024).

Each structure is given as a SMILES string. Where two headings read alike, the source gives them in different places.

The subject of one data set is EO771. The data set is described as follows: Inhibition of mammary carcinoma cell line EO771. The format is cell-based, mouse (C57BL/6). To be noted: Mus musculus; Table 5; EO771, C57BL/6, Basal, HER2−. Here is the method: 3-(4,5-Dimethylthiazol-2-yl)-2,5-diphenyltetrazolium Bromide (MTT) Cell Proliferation Assay. To cells grown in 96-well-tissue culture plate, 20 μl/well of MTT solution (5 mg/ml in PBS) was added. After 1-2 hours incubation at 37° C., the plate was centrifuged. Supernatant was discarded and 100 μl DMSO was added to dissolve water insoluble formazan, and the absorbance was read at 540 nm with a plate reader.

The test system of another data set is MCF-7 tumors. The data set is described as follows: MCF-7 ER+ mammary tumor model. The data set is classed as in vivo, mice.
The target in a further data set is CYP3A4 (Homo sapiens, UniProt P08684). In words: Midazolam hydroxylation by CYP3A4 in Nanodiscs. The data set is classed as biochemical. The procedure:
Titration of ˜6 uM CYP3A4 in POPC Nanodiscs was done using 16 mM stock solution obtained by 6-fold dilution of the original 100 mM DMSO solution in methanol. Aliquots of 0.1-0.2 μL were added to 120 μL solution of CYP3A4-ND in semi-micro cell (10 mm pathlength). Spectra with background corrected for scattering are shown in FIG. 17, and titration data points in FIG. 18.
These concentrations were selected based on IC50 for arachidonic acid metabolism mentioned in the first e-mail (low HCB concentration) and on our titration results. We used seven MDZ concentrations and measured both 1 OH and 4 OH hydroxy-MDZ products using HPLC with absorbance detection at 240 nm. Results are shown below in FIG. 19.

In another data set the target is T1, CYP2C8 (Homo sapiens, UniProt P10632).
T1 construct: purchased Corning; host or cells: insect cells (microsomes)
T1 sequence (P10632 1-490): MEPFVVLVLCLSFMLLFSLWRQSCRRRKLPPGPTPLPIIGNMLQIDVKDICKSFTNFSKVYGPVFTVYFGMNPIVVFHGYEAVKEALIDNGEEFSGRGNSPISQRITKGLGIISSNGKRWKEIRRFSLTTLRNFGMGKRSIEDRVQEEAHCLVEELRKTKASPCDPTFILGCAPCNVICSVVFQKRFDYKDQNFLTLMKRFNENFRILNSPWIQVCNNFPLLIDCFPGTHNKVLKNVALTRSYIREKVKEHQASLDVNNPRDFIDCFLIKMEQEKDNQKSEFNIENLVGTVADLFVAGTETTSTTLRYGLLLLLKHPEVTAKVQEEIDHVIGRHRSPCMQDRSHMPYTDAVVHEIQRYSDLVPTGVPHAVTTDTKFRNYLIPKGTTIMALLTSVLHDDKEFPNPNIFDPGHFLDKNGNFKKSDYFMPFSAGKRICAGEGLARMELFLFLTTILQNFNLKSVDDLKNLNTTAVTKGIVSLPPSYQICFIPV
The data set is described as follows: CYP2C8-mediated arachidonic acid epoxygenase EET biosynthesis. The data set is classed as biochemical. The procedure: Recombinant Microsomal CYP-mediated EET Biosynthesis. CYP Supersomes™ (Corning, NY) (1 μM, final concentration) were incubated at 37° C. for 30 min in the presence of AA (120 μM) in 50 μl potassium phosphate buffer, (50 mM, pH 7.4), containing 1 mM EDTA and 1 mM NADPH. Reactions were terminated by addition of 50 μL of acetonitrile spiked with ^13C-EET internal standards followed by vigorous vortexing. After centrifugation at 16,000×rpm for 10 minutes to precipitate proteins and other insoluble debris and 80 μL supernatant was transferred into HPLC vials and analyzed by with an LC-ESI/MRM/MS method.
LC-ESI/MRM/MS Method for EET Measurement. EETs were measured by an LC-ESI/MRM/MS analytical method on a ThermoFisher Vantage triple quadrupole mass spectrometer (ThermoFisher, San Jose, CA) coupled with an UltiMate 3000 HPLC (ThermoFisher, San Jose, CA), using argon as the collision gas. Negative ion monitoring was performed at the following diagnostic product ions: 319 m/z→155 m/z for 8,9-EET; 319 m/z→179 m/z for 11,12-EET; 319 m/z→219 m/z for 14,15-EET; 339 m/z→163 m/z for 8,9-[^13C-20]EET; 339 m/z→233 m/z for 11,12-[^13C-20]EET; and 339 m/z→259 m/z for 14,15-[^13C-20]EET. Base-line resolution of EET regioisomers was achieved on a Phenomenex Luna C18 (2) reverse phase capillary column (250×0.5 mm, 5-μm particles) using the following mobile phase combinations: isocratic 5% B for 5 min, gradient 5-70% B for 5 min, hold at 70% for 30 min and then 95% for 10 min; A: 0.01% acetic acid in water, B: 0.01% acetic acid in acetonitrile; 10 μl/min flow rate. A standard curve was obtained by linear regression of the peak area ratio of authentic EET regioisomers against internal standards. The amount of EETs in samples was calculated according to the standard curve.

Chain of CYP3A4 (P08684 whole entry): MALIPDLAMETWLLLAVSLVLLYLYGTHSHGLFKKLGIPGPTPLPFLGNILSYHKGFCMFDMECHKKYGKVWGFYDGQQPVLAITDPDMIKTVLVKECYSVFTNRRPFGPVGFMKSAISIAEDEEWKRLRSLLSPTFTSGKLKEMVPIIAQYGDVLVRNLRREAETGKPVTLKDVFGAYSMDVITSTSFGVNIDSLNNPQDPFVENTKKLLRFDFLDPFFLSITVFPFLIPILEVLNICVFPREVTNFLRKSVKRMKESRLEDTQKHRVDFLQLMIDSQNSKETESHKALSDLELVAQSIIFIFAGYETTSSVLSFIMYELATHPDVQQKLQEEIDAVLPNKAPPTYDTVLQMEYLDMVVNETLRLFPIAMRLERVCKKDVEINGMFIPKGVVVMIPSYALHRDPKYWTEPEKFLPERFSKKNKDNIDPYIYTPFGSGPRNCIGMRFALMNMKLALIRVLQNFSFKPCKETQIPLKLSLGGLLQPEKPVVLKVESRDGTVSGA

In the case of `CCCCCCNC(=N)NC(=N)NCc1ccccc1` [HBB, N1-hexyl-N5-benzyl-biguanide], the IC50 with EO771 was determined as 21.7 µM. Moreover, the tumor control result in the data set on MCF-7 tumors (subcutaneous route at the MTD, compared with other route) is on record as “equally effective”. The “oxidative phosphorylation in ER+/HER2− MCF-7 tumors” value in the data set on MCF-7 tumors (subcutaneous, MTD) is “inhibit oxidative phosphorylation”.

With `CCCCCCNC(=N)NC(=N)NCC12C3C4C5C3C1C5C42` (stereo not drawn) [HCB, Hexyl Cubanomethyl Biguanide], the “inhibition of MDZ hydroxylation” value on CYP3A4 (5.9 uM HCB, CYP3A4 Nanodiscs) is on record as “Significant inhibition”. The “effect on the 1 OH/4 OH ratio of MDZ hydroxylation” value on CYP3A4 (64 uM HCB) is “clear and reproducible effect”. For the same compound, the IC50 on CYP2C8 ((±)8,9-EET, read-out: IC50, CYP2C8 biosynthesis of (±)8,9-EET) was determined as 31 µM; on CYP2C8 ((±)11,12-EET, read-out: IC50, CYP2C8 biosynthesis of (±)11,12-EET) it was 52 µM; at CYP2C8 ((±)14,15-EET, read-out: inhibition of CYP2C8-mediated biosynthesis of (±)14,15-EET) it was 42 µM. In addition, the “fold lower inhibition of CYP2C8 (vs CYP3A4)” value at CYP2C8 ((±)14,15-EET biosynthesis) is 10 fold.
